Laboratory results as given in PubChem BioAssay (NCI).
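The concentration for 50% growth inhibition is given as GI50. Definition used: TGI = concentration required for complete inhibition of growth.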

Experiments:
Experiment in all cases: NCI tumour cell line growth inhibition, 384-well format
[1] = tested on: 786-0 renal
[2] = tested on: A498 renal
[3] = tested on: A549 NSCLC
[4] = tested on: ACHN renal
[5] = tested on: BT-549 breast
[6] = tested on: CAKI-1 renal
[7] = tested on: COLO 205 colon
[8] = tested on: DU-145 prostate
[9] = tested on: EKVX NSCLC
[10] = tested on: HCC-2998 colon
[11] = tested on: HCT-116 colon
[12] = tested on: HCT-15 colon
[13] = tested on: HL-60(TB) leukemia
[14] = tested on: HOP-62 NSCLC
[15] = tested on: HOP-92 NSCLC
[16] = tested on: HS 578T breast
[17] = tested on: HT29 colon
[18] = tested on: IGROV1 ovarian
[19] = tested on: KM12 colon
[20] = tested on: LOX IMVI melanoma
[21] = tested on: M14 melanoma
[22] = tested on: MALME-3M melanoma
[23] = tested on: MCF7 breast
[24] = tested on: MDA-MB-231 breast
[25] = tested on: MDA-MB-435 melanoma
[26] = tested on: MDA-MB-468 breast
[27] = tested on: MOLT-4 leukemia
[28] = tested on: NCI-H226 lung
[29] = tested on: NCI-H23 lung
[30] = tested on: NCI-H322M lung
[31] = tested on: NCI-H460 NSCLC
[32] = tested on: NCI-H522 lung
[33] = tested on: NCI/ADR-RES ovarian
[34] = tested on: OVCAR-3 ovarian
[35] = tested on: OVCAR-4 ovarian
[36] = tested on: OVCAR-5 ovarian
[37] = tested on: OVCAR-8 ovarian
[38] = tested on: PC-3 prostate
[39] = tested on: RPMI-8226 leukemia
[40] = tested on: RXF 393 renal
[41] = tested on: SF-268 CNS
[42] = tested on: SF-295 CNS
[43] = tested on: SF-539 CNS
[44] = tested on: SK-MEL-28 melanoma
[45] = tested on: SK-MEL-5 melanoma
[46] = tested on: SK-OV-3 ovarian
[47] = tested on: SN12C renal
[48] = tested on: SNB-19 CNS
[49] = tested on: SNB-75 CNS
[50] = tested on: SR leukemia
[51] = tested on: SW-620 colon
[52] = tested on: T-47D breast
[53] = tested on: TK-10 renal
[54] = tested on: U251 glioblastoma
[55] = tested on: UACC-257 melanoma
[56] = tested on: UACC-62 melanoma
[57] = tested on: UO-31 renal

## CNC(=O)c1ccc(N2C(=S)N(c3ccc(C#N)c(C(F)(F)F)c3)C(=O)C2(C)C)cc1F
[1]
  GI50: > 100 µM
  TGI: > 100 µM
[2]
  GI50: 54.7 µM
  TGI: > 100 µM
[3]
  GI50: 34.4 µM
  TGI: > 100 µM
[4]
  GI50: 19.8 µM
  TGI: 40.4 µM
[5]
  GI50: 31.7 µM
  TGI: 95.5 µM
[6]
  GI50: 90.8 µM
  TGI: > 100 µM
[7]
  GI50: 95.5 µM
  TGI: > 100 µM
[8]
  GI50: 37.5 µM
  TGI: > 100 µM
[9]
  GI50: 44.8 µM
  TGI: > 100 µM
[10]
  GI50: 93.4 µM
  TGI: > 100 µM
[11]
  GI50: 33.7 µM
  TGI: > 100 µM
[12]
  GI50: 46 µM
  TGI: > 100 µM
[13]
  GI50: 17 µM
  TGI: 34.5 µM
[14]
  GI50: 27.5 µM
  TGI: 84.9 µM
[15]
  GI50: > 100 µM
  TGI: > 100 µM
[16]
  GI50: 30.9 µM
  TGI: > 100 µM
[17]
  GI50: 82.9 µM
  TGI: > 100 µM
[18]
  GI50: 52.1 µM
  TGI: > 100 µM
[19]
  GI50: 69.1 µM
  TGI: > 100 µM
[20]
  GI50: 49.6 µM
  TGI: > 100 µM
[21]
  GI50: 81.9 µM
  TGI: > 100 µM
[22]
  GI50: 24.1 µM
  TGI: > 100 µM
[23]
  GI50: 37.6 µM
  TGI: > 100 µM
[24]
  GI50: 95.6 µM
  TGI: > 100 µM
[25]
  GI50: > 100 µM
  TGI: > 100 µM
[26]
  GI50: 26.9 µM
  TGI: 80.2 µM
[27]
  GI50: 18.1 µM
  TGI: 35.3 µM
[28]
  GI50: 29.9 µM
  TGI: > 100 µM
[29]
  GI50: 31.3 µM
  TGI: > 100 µM
[30]
  GI50: 93.8 µM
  TGI: > 100 µM
[31]
  GI50: 38.9 µM
  TGI: > 100 µM
[32]
  GI50: 74 µM
  TGI: > 100 µM
[33]
  GI50: 27.5 µM
  TGI: 90.9 µM
[34]
  GI50: 59.2 µM
  TGI: > 100 µM
[35]
  GI50: 34.7 µM
  TGI: 92.6 µM
[36]
  GI50: > 100 µM
  TGI: > 100 µM
[37]
  GI50: 37.6 µM
  TGI: > 100 µM
[38]
  GI50: 49.6 µM
  TGI: > 100 µM
[39]
  GI50: 32 µM
  TGI: > 100 µM
[40]
  GI50: 29.6 µM
  TGI: 85.7 µM
[41]
  GI50: 72.2 µM
  TGI: > 100 µM
[42]
  GI50: 31.6 µM
  TGI: > 100 µM
[43]
  GI50: > 100 µM
  TGI: > 100 µM
[44]
  GI50: > 100 µM
  TGI: > 100 µM
[45]
  GI50: 41.4 µM
  TGI: > 100 µM
[46]
  GI50: > 100 µM
  TGI: > 100 µM
[47]
  GI50: > 100 µM
  TGI: > 100 µM
[48]
  GI50: 85.4 µM
  TGI: > 100 µM
[49]
  GI50: 48.5 µM
  TGI: > 100 µM
[50]
  GI50: 33.5 µM
  TGI: 49.7 µM
[51]
  GI50: > 100 µM
  TGI: > 100 µM
[52]
  GI50: 32.9 µM
  TGI: > 100 µM
[53]
  GI50: > 100 µM
  TGI: > 100 µM
[54]
  GI50: 61.9 µM
  TGI: > 100 µM
[55]
  GI50: 72.4 µM
  TGI: > 100 µM
[56]
  GI50: > 100 µM
  TGI: > 100 µM
[57]
  GI50: 63.1 µM
  TGI: > 100 µM
